SMILES strings stand for the structures. Where only a bound is given, the exact number is not on record here.

One experiment addresses T1, Metabotropic glutamate receptor 2 (Homo sapiens, UniProt Q14416). The experiment can be described thus: Agonist activity at human mGluR2 expressed in CHO cells co-expressing Ga16 G-protein assessed as glutamate-induced response by FLIPR assay. The format is functional, cell-based.
Target sequence in this assay (Q14416 whole entry): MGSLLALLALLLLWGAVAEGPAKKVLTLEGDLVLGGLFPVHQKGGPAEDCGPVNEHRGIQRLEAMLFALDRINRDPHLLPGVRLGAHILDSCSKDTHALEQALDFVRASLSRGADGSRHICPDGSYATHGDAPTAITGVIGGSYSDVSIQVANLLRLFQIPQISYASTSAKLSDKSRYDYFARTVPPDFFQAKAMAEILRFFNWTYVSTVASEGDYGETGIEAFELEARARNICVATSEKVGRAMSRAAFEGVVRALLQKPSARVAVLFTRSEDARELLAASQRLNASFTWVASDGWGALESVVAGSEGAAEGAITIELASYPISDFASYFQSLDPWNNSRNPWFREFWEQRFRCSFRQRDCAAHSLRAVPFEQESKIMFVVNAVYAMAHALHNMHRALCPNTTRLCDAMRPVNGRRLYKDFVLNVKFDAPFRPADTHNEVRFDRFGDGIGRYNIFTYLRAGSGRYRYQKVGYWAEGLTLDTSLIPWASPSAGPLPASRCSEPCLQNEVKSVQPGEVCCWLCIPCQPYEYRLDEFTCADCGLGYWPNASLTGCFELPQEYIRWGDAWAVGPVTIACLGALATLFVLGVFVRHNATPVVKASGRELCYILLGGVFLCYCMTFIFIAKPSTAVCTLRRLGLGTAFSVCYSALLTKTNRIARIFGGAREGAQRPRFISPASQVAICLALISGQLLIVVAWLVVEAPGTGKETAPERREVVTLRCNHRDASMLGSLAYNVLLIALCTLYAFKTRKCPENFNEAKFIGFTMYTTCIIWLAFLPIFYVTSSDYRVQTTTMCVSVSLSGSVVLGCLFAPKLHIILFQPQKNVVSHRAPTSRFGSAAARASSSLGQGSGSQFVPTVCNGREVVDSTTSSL
With `Cn1c(CN2CCN(c3ccccc3F)CC2)nc2ccccc21`, the EC50 (usually the concentration at which the effect is half-maximal) is 6310 nM.

Take `Cn1c(CN2CCN(c3ccccc3C(F)(F)F)CC2)nc2ccccc21`: the EC50 is more than 15800 nM.

For the compound `Cn1c(CN2CCC(c3ccccn3)CC2)nc2ccccc21`, the half-maximal effective concentration (EC50) is more than 15800 nM.

In a further experiment the target is T1, Metabotropic glutamate receptor 2. The experiment can be described thus: Positive modulation of human mGluR2 expressed in CHO cells co-expressing Ga16 G-protein assessed as glutamate-induced response by FLIPR assay. The class given is cell-based.
Target sequence in this assay (Q14416 whole entry): as above
On to `COCCn1c(CN2CCN(c3ncc(Cl)cn3)CC2)nc2ccccc21`, for which the concentration for a half-maximal effect (EC50) is 501 nM.

Turning to `CCCn1c(CN2CCN(c3ncc(Cl)cn3)CC2)nc2ccccc21`, the 50% effective concentration (EC50) was 794 nM.

For `Clc1cnc(N2CCN(Cc3nc4ccccc4[nH]3)CC2)nc1`, the EC50 is 12600 nM.

`Cn1c(CN2CCN(c3ncc(C(F)(F)F)cc3Cl)CC2)nc2cc(F)ccc21`: the EC50 was 200 nM.

In the case of `Cn1c(CN2CCN(c3ccc(C#N)cc3)CC2)nc2ccccc21`, the EC50 is more than 12600 nM.

Turning to `Clc1cnc(N2CCN(Cc3nc4ccccc4n3Cc3ccccc3)CC2)nc1`, the EC50 is 126 nM.

Regarding `CCn1c(CN2CCN(c3ncc(C(F)(F)F)cc3Cl)CC2)nc2ccccc21`, the concentration giving a half-maximal response (EC50) was 63.1 nM.

For `Cn1c(CN2CCN(c3ncc(C(F)(F)F)cc3Cl)CC2)nc2cc(C(F)(F)F)ccc21`, the 50% effective concentration (EC50) was 2000 nM.

With `Cn1c(CN2CCN(c3ncc(C(F)(F)F)cc3Cl)CC2)nc2cc(C#N)ccc21`, the half-maximal effective concentration (EC50) was 50.1 nM.

In the case of `FC(F)(F)c1cnc(N2CCN(Cc3nc4ccccc4n3Cc3ccccc3)CC2)c(Cl)c1`, the EC50 is 126 nM.

On to `FC(F)(F)c1cnc(N2CCN(Cc3nc4ccccc4[nH]3)CC2)c(Cl)c1`, for which the EC50 was 12600 nM.

Regarding `Cn1c(CN2CCN(c3ncc(C(F)(F)F)cc3Cl)CC2)nc2ccc(F)cc21`, the EC50 is 126 nM.

With `COCCn1c(CN2CCN(c3ncc(C(F)(F)F)cc3Cl)CC2)nc2ccccc21`, the EC50 was 158 nM.

`Cn1c(CN2CCN(c3ccccn3)CC2)nc2ccccc21`: the concentration for a half-maximal effect (EC50) was 15800 nM.

As to `Cn1c(CN2CCN(c3ccccc3F)CC2)nc2ccccc21`, the concentration giving a half-maximal response (EC50) was 794 nM.

Take `CCCn1c(CN2CCN(c3ncc(C(F)(F)F)cc3Cl)CC2)nc2ccccc21`: the EC50 is 2510 nM.

`Cn1c(CN2CCN(c3ccccc3C(F)(F)F)CC2)nc2ccccc21`: the concentration giving a half-maximal response (EC50) is 316 nM.

Turning to `CCn1c(CN2CCN(c3ncc(Cl)cn3)CC2)nc2ccccc21`, the 50% effective concentration (EC50) was 158 nM.

On to `Cn1c(CN2CCC(c3ccccn3)CC2)nc2ccccc21`, for which the EC50 was more than 3160 nM.

A further experiment shares this target. The experiment can be described thus: Positive modulation of human mGluR2 expressed in CHO cells co-expressing Ga16 G-protein assessed as glutamate-induced response by FLIPR assay relative to glutamate. The format is cell-based.
Target sequence in this assay (Q14416 19-872 limits assumed): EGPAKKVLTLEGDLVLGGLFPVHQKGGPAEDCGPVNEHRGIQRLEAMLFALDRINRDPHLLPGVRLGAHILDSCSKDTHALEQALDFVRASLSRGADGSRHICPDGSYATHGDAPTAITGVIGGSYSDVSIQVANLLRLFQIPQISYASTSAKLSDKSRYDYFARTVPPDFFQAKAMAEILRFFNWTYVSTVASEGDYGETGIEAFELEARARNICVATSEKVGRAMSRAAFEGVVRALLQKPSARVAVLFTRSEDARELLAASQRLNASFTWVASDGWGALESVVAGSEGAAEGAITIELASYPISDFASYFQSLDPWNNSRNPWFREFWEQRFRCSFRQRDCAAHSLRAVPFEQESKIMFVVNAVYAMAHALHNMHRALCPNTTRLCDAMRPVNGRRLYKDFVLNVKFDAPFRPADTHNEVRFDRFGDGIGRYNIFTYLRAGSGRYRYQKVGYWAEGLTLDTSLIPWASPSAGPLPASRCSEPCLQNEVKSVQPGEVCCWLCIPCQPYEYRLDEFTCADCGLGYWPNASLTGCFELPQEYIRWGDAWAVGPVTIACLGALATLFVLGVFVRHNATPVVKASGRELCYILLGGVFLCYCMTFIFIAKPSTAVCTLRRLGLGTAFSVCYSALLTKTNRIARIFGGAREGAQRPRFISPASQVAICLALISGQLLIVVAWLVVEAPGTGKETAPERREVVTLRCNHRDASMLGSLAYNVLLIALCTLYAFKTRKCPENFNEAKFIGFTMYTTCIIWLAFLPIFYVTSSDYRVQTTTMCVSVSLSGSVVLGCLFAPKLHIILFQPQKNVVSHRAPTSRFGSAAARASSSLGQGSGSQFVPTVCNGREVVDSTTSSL
With `Cn1c(CN2CCN(c3ccccn3)CC2)nc2ccccc21`, the maximum response (Emax) (as a rule, the size of the effect at its maximum, as opposed to the concentration needed) was determined as 100%.

As to `Cn1c(CN2CCN(c3ccccc3F)CC2)nc2ccccc21`, the Emax stood at 64%.

Turning to `Cn1c(CN2CCN(c3ccccc3C(F)(F)F)CC2)nc2ccccc21`, the maximal effect (Emax) was determined as 84%.

Another experiment addresses T2, D(4) dopamine receptor (Homo sapiens, UniProt P21917).
T2 sequence (P21917 whole entry): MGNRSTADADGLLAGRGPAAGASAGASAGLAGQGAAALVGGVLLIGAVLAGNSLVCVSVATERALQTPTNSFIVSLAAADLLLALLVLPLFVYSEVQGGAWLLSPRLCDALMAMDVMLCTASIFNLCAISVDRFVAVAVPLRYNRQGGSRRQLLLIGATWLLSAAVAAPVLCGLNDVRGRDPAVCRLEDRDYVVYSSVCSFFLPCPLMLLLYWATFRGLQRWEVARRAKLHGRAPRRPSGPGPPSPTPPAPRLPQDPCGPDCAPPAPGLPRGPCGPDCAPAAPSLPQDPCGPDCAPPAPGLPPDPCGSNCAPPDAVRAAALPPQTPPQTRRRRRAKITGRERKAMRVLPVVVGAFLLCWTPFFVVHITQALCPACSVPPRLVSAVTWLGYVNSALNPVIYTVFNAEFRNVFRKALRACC
Nature of the experiment: Antagonist activity at human D4 receptor expressed in HEK293 cells co-expressing Gqo5 G-protein by FLIPR assay. The format is functional, cell-based.
Consider `Cn1c(CN2CCN(c3ccccc3C(F)(F)F)CC2)nc2ccccc21`, for which the inhibitory constant (Ki) – broadly, the dissociation constant of the complex between target and ligand, obtained from inhibition or displacement – is 631 nM.

Source of the values: ChEMBL document CHEMBL1153221, “The identification of structurally novel, selective, orally bioavailable positive modulators of mGluR2” (Bioorg Med Chem Lett, 2010).
